Data taken from patent publication US10294202B2, “Pyrrolidinones as herbicides” (FMC Corporation, priority 2013, dated 2019).

How the values were obtained:
sprangletop, Brdd. = test: Test F flood (paddy) test; assay type: in vivo, Leptochloa fascicularis; details: 21 d, scale 0-100
In short: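 Pots of sterilized Tama silt loam (35:50:15 sand:silt:clay, 2.6% organic matter) were sown so crop and weeds reached the 2.0–2.5-leaf stage; greenhouse 30/27 °C, 16-h photoperiod. Pots flooded to 3 cm, compound applied into paddy water, depth maintained. Visual rating vs untreated controls after 21 d, 0–100 scale.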

corn = test: Test E preemergence herbicide test; assay type: in vivo, Zea mays; set-up: key: 0 = no effect, 100 = complete control
In short: (§1)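 Seeds sown in silt loam soil received preemergence treatment with compound in a non-phytotoxic solvent mixture containing surfactant. After 21 days in the greenhouse, plants were visually rated against untreated controls on a 0 (no effect) to 100 (complete control) scale.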

Russian thistle = test: Test D pre-/postemergence herbicide test; assay type: in vivo, Salsola kali; details: for Plant response rating: Postemergence, Russian Thistle, scale 0 to 100; for Plant response rating, Russian Thistle: Preemergence, scale 0 to 100 (0 no effect, 100 complete control)
In short: (§2)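 Visual ratings from 0 (no effect) to 100 (complete control) were made against untreated controls 7 to 21 days after treatment. Application was both preemergence, on silt loam soil, and postemergence, to 1- to 4-leaf plants 2-18 cm tall; compounds were formulated in a non-phytotoxic surfactant-containing solvent.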

dayflower, VA = test: Test E preemergence herbicide test; assay type: in vivo, Commelina virginica; set-up: key: 0 = no effect, 100 = complete control
In short: as §1

ryegrass, Italian = test: Test D pre-/postemergence herbicide test; assay type: in vivo, Lolium multiflorum; details: for Plant response rating: Postemergence, Ryegrass, Italian, scale 0 to 100; for Plant response rating, Ryegrass, Italian: Preemergence, scale 0 to 100 (0 no effect, 100 complete control)
In short: as §2

bluegrass = test: Test D pre-/postemergence herbicide test; assay type: in vivo, Poa annua; details: for Plant response rating: Bluegrass, scale 0 to 100; for Plant response rating, Bluegrass: scale 0 to 100 (0 no effect, 100 complete control)
Description: Seeds of plant species selected from bluegrass (annual bluegrass, Poa annua), blackgrass (Alopecurus myosuroides), canarygrass (littleseed canarygrass, Phalaris minor), chickweed (common chickweed, Stellaria media), galium (catchweed bedstraw, Galium aparine), bromegrass, downy (downy bromegrass, Bromus tectorum), field poppy (Papaver rhoeas), field violet (Viola arvensis), foxtail, green (green foxtail, Setaria viridis), deadnettle (henbit deadnettle, Lamium amplexicaule), ryegrass, Italian (Italian ryegrass, Lolium multiflorum), kochia (Kochia scoparia), lambsquarters (Chenopodium album), oilseed rape (Brassica napus), pigweed (Amaranthus retroflexus), chamomile (scentless chamomile, Matricaria inodora), Russian thistle (Salsola kali), speedwell (bird's-eye speedwell, Veronica persica), barley, spring (spring barley, Hordeum vulgare), wheat, spring (spring wheat, Triticum aestivum), buckwheat, wild (wild buckwheat, Polygonum convolvulus), mustard, wild (wild mustard, Sinapis arvensis), oat, wild (wild oat, Avena fatua), radish, wild (wild radish, Raphanus raphanistrum), […]), barley, winter (winter barley, Hordeum vulgare), and wheat, winter (winter wheat, Triticum aestivum) were planted into a silt loam soil and treated preemergence with test chemicals formulated in a non-phytotoxic solvent mixture which included a surfactant. At the same time, these species were planted in pots containing Redi-Earth® planting medium (Scotts Company, 14111 Scottslawn Road, Marysville, Ohio 43041) comprising spaghnum peat moss, vermiculite, wetting agent and starter nutrients and treated with postemergence applications of the test chemicals formulated in the same manner. Plants ranged in height from 2 to 18 cm (1- to 4-leaf stage). Treated plants and controls were maintained in a controlled growth environment for 7 to 21 days after which time all species were compared to controls and visually evaluated. Plant response ratings, summarized in Table D, are based on a scale of 0 to 100 where 0 is no effect and 100 is complete control. A dash (-) response means no test result.

Row | Structure (SMILES) | Plant response rating, Sprangletop, Brdd. (sprangletop, Brdd.; 125 g ai/ha) | Plant response rating, Sprangletop, Brdd. (sprangletop, Brdd.; 250 g ai/ha) | Plant response rating, Sprangletop, Brdd. (sprangletop, Brdd.; 500 g ai/ha) | Plant response rating, Corn (corn; 31 g ai/ha) | Plant response rating, Corn (corn; 62 g ai/ha) | Plant response rating, Corn (corn; 125 g ai/ha) | Plant response rating, Corn (corn; 250 g ai/ha) | Plant response rating, Dayflower, VA (dayflower, VA; 31 g ai/ha) | Plant response rating, Dayflower, VA (dayflower, VA; 62 g ai/ha) | Plant response rating, Dayflower, VA (dayflower, VA; 125 g ai/ha) | Plant response rating, Dayflower, VA (dayflower, VA; 250 g ai/ha) | Plant response rating, Ryegrass, Italian (ryegrass, Italian; 62 g ai/ha) | Plant response rating, Ryegrass, Italian (ryegrass, Italian; 125 g ai/ha) | Plant response rating, Ryegrass, Italian (ryegrass, Italian; 31 g ai/ha) | Plant response rating, Ryegrass, Italian (ryegrass, Italian; 250 g ai/ha) | Plant response rating, Bluegrass (bluegrass; Preemergence, 62 g ai/ha) | Plant response rating, Bluegrass (bluegrass; Preemergence, 31 g ai/ha) | Plant response rating (bluegrass; Preemergence, 250 g ai/ha) | other results
1 | O=C1NCC(c2ccc(F)c(F)c2)C1C(=O)Nc1cccc(F)c1F (racemic) [Compound 101] | 85 | 95 | 95 | – | – | – | – | – | – | – | – | – | – | – | – | – | – | – | Plant response rating, Sprangletop, Brdd. (sprangletop, Brdd.; 64 g ai/ha): 75
2 | O=C1NCC(c2ccc(C(F)(F)F)cc2)C1C(=O)Nc1cccc(F)c1F (racemic) [Compound 202] | – | – | – | 0 | 0 | 40 | 60 | 0 | 0 | 0 | 40 | 5 | 5 | 0 | 10 | 25 | 10 | 70 | Plant response rating (Russian thistle; 31 g ai/ha): 30; Plant response rating (Russian thistle; 62 g ai/ha): 30; Plant response rating (Russian thistle; 125 g ai/ha): 30; Plant response rating (Russian thistle; 250 g ai/ha): 35; Plant response rating, Russian Thistle (Russian thistle; 62 g ai/ha): 20; Plant response rating, Russian Thistle (Russian thistle; 125 g ai/ha): 35; Plant response rating, Russian Thistle (Russian thistle; 31 g ai/ha): 15; Plant response rating, Russian Thistle (Russian thistle; 250 g ai/ha): 40; Plant response rating (ryegrass, Italian; 31 g ai/ha): 0; Plant response rating (ryegrass, Italian; 62 g ai/ha): 0; Plant response rating (ryegrass, Italian; 125 g ai/ha): 10; Plant response rating (ryegrass, Italian; 250 g ai/ha): 15; Plant response rating (bluegrass; Postemergence, 31 g ai/ha): 0; Plant response rating (bluegrass; Postemergence, 62 g ai/ha): 10; Plant response rating (bluegrass; Postemergence, 125 g ai/ha): 10; Plant response rating (bluegrass; Postemergence, 250 g ai/ha): 15; Plant response rating (bluegrass; Preemergence, 125 g ai/ha): 65
3 | O=C1NCC(c2cccc(C(F)F)c2)C1C(=O)Nc1ccccc1F (racemic) [Compound 210] | 100 | 100 | 100 | – | – | – | – | – | – | – | – | – | – | – | – | – | – | – | –
4 | O=C1NCCC1C(=O)N(c1ccc(F)c(F)c1)c1ccccc1F (stereo not drawn) [Compound 5, N-(3,4-difluorophenyl)-N-(2-fluorophenyl)-2-oxo-3-pyrrolidinecarboxamide] | 85 | 85 | 85 | – | – | – | – | – | – | – | – | – | – | – | – | – | – | – | Plant response rating, Sprangletop, Brdd. (sprangletop, Brdd.; 1000 g ai/ha): 85; Plant response rating, Sprangletop, Brdd. (sprangletop, Brdd.; 2000 g ai/ha): 90
5 | O=C1NCC(c2ccc(C(F)(F)F)cc2)C1C(=O)Nc1cccc(F)c1F (stereo not drawn) [Compound 80, N-(2,3-difluorophenyl)-2-oxo-4-[4-(trifluoromethyl)phenyl]-3-pyrrolidinecarboxamide] | – | – | – | 0 | 0 | 0 | 30 | 0 | 0 | 0 | 0 | 5 | 5 | 0 | 15 | 10 | 0 | 45 | Plant response rating, Corn (corn; 16 g ai/ha): 0; Plant response rating (Russian thistle; 31 g ai/ha): 20; Plant response rating (Russian thistle; 62 g ai/ha): 30; Plant response rating (Russian thistle; 125 g ai/ha): 25; Plant response rating (Russian thistle; 250 g ai/ha): 35; Plant response rating, Dayflower, VA (dayflower, VA; 16 g ai/ha): 0; Plant response rating (ryegrass, Italian; 31 g ai/ha): 0; Plant response rating (ryegrass, Italian; 62 g ai/ha): 0; Plant response rating (ryegrass, Italian; 125 g ai/ha): 0; Plant response rating (ryegrass, Italian; 250 g ai/ha): 0; Plant response rating (bluegrass; Postemergence, 31 g ai/ha): 5; Plant response rating (bluegrass; Postemergence, 62 g ai/ha): 10; Plant response rating (bluegrass; Postemergence, 125 g ai/ha): 15; Plant response rating (bluegrass; Postemergence, 250 g ai/ha): 10; Plant response rating (bluegrass; Preemergence, 125 g ai/ha): 20
6 | O=C1NC[C@H](c2cccc(C(F)(F)F)c2)[C@H]1C(=O)Nc1ccccc1F [Compound 204, (3R,4S)—N-(2-fluorophenyl)-2-oxo-4-[3-(trifluoromethyl)phenyl]-3-pyrrolidinecarboxamide] | 98 | 100 | 100 | 0 | 0 | 0 | 40 | 0 | 0 | 20 | 30 | 15 | 45 | 5 | 60 | 0 | 0 | 35 | Plant response rating, Bluegrass (bluegrass; Preemergence, 125 g ai/ha): 15
7 | O=C1NC[C@H](c2cccc(C(F)(F)F)c2)[C@H]1C(=O)Nc1cccc(F)c1F [Compound 206] | 95 | 100 | 100 | 0 | 50 | 40 | 70 | 0 | 0 | 0 | 20 | 30 | 55 | 35 | 75 | 30 | 0 | 70 | Plant response rating, Sprangletop, Brdd. (sprangletop, Brdd.; 64 g ai/ha): 90; Plant response rating, Bluegrass (bluegrass; Preemergence, 125 g ai/ha): 35
8 | CN1CC(c2ccc(F)c(F)c2)C(C(=O)Nc2cccc(F)c2F)C1=O (stereo not drawn) [Compound 303] | 80 | 85 | 90 | – | – | – | – | – | – | – | – | – | – | – | – | – | – | – | Plant response rating, Sprangletop, Brdd. (sprangletop, Brdd.; 62 g ai/ha): 70
